This is an account of results in patent publication US9309261B2, “Spirooxindole derivative and process for producing the same” (OKINAWA INSTITUTE OF SCIENCE AND TECHNOLOGY SCHOOL …, priority 2012, dated 2016).

Data set [1] is described as follows: Cytotoxicity: K562 cell growth inhibition (Cell Counting Kit-8, WST-8). Particulars: human, K562 cells. Type of data set: cell-based. The protocol:
K562 cells (American Type Culture Collection) were cultured in a culture medium containing 10% (v/v) fetal calf serum (FCS) (manufactures by Sigma) to logarithmic phase. The cells were seeded in 96-well microtiter plate at a density of 5000 cells/well in 100 μL cell culture medium and incubated at 37° C. and 5% CO2 in a humidified incubator overnight. The test compounds of various concentrations were added in a well at 10 fold concentration in 1/10 volume of medium without FCS. After 6-48 hrs incubation at 37° C. in the CO2 incubator, 10 μL solution of the viable cell counting reagent, Cell counting Kit-8 (5 mmol/L WST-8, 0.2 mmol/L 1-Methoxy PMS, 150 mmol/L NaCl) (manufactured by Dojindo) was added to each well, and reacted for 1 to 4 hours in the CO2 incubator. After the incubation, an absorbance of formazan, generated by reduction of WST-8 was determined at 450 nm using a microplate reader.
The assay readout is correlated with the viable cell numbers. Small values correspond to high inhibition and larger values to low inhibition of the cell growth. To determine IC50 values (i.e. the concentration inhibiting the cell growth by 50%) of the compound of formula I, several assays were made with a range of concentrations chosen empirically to give low, high and intermediate inhibition of the growth and determined using the curve fitting software.
IC50 values can be converted logarithmically to pIC50 values (−log IC50), in which higher values indicate exponentially greater potency. The IC50 value is not an absolute value but depends on experimental conditions e.g. concentrations employed.
In general terms: Tetrazolium dyes change colour on reduction, which living cells bring about.

For data set [2], the system named is tumor cells in which both WNT and KRas signaling pathways are activated. The data set can be described thus: Selective lethality to tumor cells with activated WNT and KRas signaling. The format is cell-based.
In data set [3] the target is T1, Hexokinase-II (HK-II) (Homo sapiens, UniProt P52789).
T1 sequence (P52789 1-917): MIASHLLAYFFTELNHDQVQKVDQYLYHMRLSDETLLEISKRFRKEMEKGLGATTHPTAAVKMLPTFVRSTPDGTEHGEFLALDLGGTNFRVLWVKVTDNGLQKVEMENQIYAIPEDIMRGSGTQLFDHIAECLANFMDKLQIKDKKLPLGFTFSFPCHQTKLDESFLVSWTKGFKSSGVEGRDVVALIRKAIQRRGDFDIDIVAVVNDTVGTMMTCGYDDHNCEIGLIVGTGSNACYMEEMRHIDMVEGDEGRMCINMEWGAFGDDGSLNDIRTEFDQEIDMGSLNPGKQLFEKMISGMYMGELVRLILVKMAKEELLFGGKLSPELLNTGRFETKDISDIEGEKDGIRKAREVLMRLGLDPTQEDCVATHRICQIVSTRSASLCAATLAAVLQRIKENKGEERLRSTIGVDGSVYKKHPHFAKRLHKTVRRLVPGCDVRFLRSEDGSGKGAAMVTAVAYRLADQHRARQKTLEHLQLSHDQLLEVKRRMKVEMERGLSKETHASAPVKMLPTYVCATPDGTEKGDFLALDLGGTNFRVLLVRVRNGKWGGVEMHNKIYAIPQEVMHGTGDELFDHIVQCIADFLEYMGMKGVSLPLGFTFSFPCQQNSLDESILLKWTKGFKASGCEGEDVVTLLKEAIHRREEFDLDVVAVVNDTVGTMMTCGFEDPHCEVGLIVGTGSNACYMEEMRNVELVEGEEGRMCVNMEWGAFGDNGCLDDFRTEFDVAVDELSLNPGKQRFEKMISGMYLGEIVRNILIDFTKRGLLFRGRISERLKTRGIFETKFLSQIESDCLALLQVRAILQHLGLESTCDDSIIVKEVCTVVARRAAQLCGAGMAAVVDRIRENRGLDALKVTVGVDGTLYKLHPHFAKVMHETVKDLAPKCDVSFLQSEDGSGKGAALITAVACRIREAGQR
The data set can be described thus: Hexokinase 2 inhibition (Transcreener ADP2 assay). Particulars: read-out: HK-II Inhibition ADP-FP (% inhibition at 20 μM). Type of data set: biochemical. From the text: It is well known that tumor cells mainly rely on glycolysis for energy generation and intermediary metabolism, a phenomenon known as the Warburg effect. Hexokinase-II (HK-II), a key enzyme of glycolysis, catalyzes the first step in the conversion of glucose to glucose-6-phosphate. HK-II is highly expressed in many types of tumors and its expression is correlated with glucose uptake, tumor aggressiveness, and poor survival prognosis. Inhibition of HK-II activity attenuates tumor cell growth and induces apoptosis.
The test compounds were added to a typical reaction mixture of HK-II, and the produced ADP concentrations were determined using Transcreener® ADP^2 FI Assay (BellBrook Labs, Madison, Wis., USA).

As for `C=CC[C@@]1(O)C[C@@H](CCC)O[C@]2(C1)C(=O)Nc1ccccc12` [Compound 7, (2′S,4′R,6′R)-4′-allyl-4′-hydroxy-6-propyl-3′,4′,5′,6-tetrahydrospiro[indoline-3,2′-pyran]-2-one], the melting point lay in the range of 189 to 191 °C. Also, in data set [1] (sample of 87% ee), the IC50 was more than 212 µM. Moreover, the IC50 in data set [1] (sample with no ee given) was more than 212 µM.

Consider `CCC[C@@H]1C[C@@H](O)C[C@@]2(O1)C(=O)Nc1ccccc12` [Compound 5, (2′S,4′R,6′R)-4′-hydroxy-6′-propyl-3′,4′,5′,6′-tetrahydrospiro[indoline-3,2′-pyran]-2-one], for which the melting point was 169 to 171 °C. In data set [1] (sample of 92% ee), this compound registered an IC50 of more than 245 µM. The same compound registered an IC50 in data set [1] (sample with no ee given) of more than 245 µM.

For the compound `O=C1C[C@H](c2ccccc2)O[C@@]2(C1)C(=O)Nc1ccccc12` [Compound 3ja, (2′R,6′R)-6′-phenyl-5′,6′-dihydrospiro[indoline-3,2′-pyran]-2,4′(3′H)-dione], the “activity selectively lethal to tumor cells in which both WNT and KRas signaling pathways are activated” value (from here on “activity selectively lethal”) in data set [2] is “selectively lethal”. For the same compound, the inhibition at 20 µM in data set [3] is 33.8%.

Compound `O=C1C[C@@H](CCN2C(=O)c3ccccc3C2=O)O[C@]2(C1)C(=O)Nc1ccccc12` [Compound 3ga, (2′S,6′R)-6′-(2-(1,3-dioxoisoindolin-2-yl)ethyl)-5′,6′-dihydrospiro[indoline-3,2′-pyran]-2,4′(3′H)-dione] came in with a melting point of 199 to 201 °C. The compound also gave an IC50 in data set [1] (sample of 91% ee) of 113 µM.

Regarding `CCC[C@@H]1CC(=O)C[C@@]2(O1)C(=O)Nc1ccccc12` [Compound 3aa, (2′S,6′R)-6′-Propyl-5′,6′-dihydrospiro[indoline-3,2′-pyran)-2,4′(3′H)-dione], the melting point was in the range of 118 to 120 °C. It took 130 µM to reach half-maximal inhibition in data set [1] (sample of 99% ee) (IC50). Also, in data set [1] (sample with no ee given), the IC50 stood at 125 µM.

Consider `CCC[C@@H]1CC(=O)C[C@@]2(O1)C(=O)Nc1ccc(Br)cc12` [Compound 3ae, (2′S,6′R)-5-bromo-6′-propyl-5′,6′-dihydrospiro[indoline-3,2′-pyran]-2,4′(3′H)-dione], for which, in data set [1] (sample with no ee given), the IC50 turned out to be 20 µM. Besides, the “activity selectively lethal” value in data set [2] is reported as “selectively lethal”.

Take `CCC[C@@H]1CC(=O)C[C@@]2(O1)C(=O)Nc1cccc(Br)c12` [Compound 3ac, (2′S,6′R)-4-bromo-6′-propyl-5′,6-dihydrospiro[indoline-3,2′-pyran]-2,4′(3′H)-dione]: in data set [1] (sample of 82% ee), half-maximal inhibition (IC50) required 16 µM. Besides, the “activity selectively lethal” value in data set [2] is recorded as “selectively lethal”.

Turning to `CCC[C@@H]1CC(=O)C[C@@]2(O1)C(=O)Nc1cccc(Cl)c12` [Compound 3ab, (2′S,6′R)-4-chloro-6′-propyl-5′,6′-dihydrospiro[indoline-3,2′-pyran]-2,4′(3′H)-dione], the IC50 in data set [1] (sample with no ee given) amounted to 15 µM. Further, the “activity selectively lethal” value in data set [2] is recorded as “selectively lethal”.

On to `CCC[C@@H]1C[C@@H](NCc2ccccc2)C[C@@]2(O1)C(=O)Nc1ccccc12` [Compound 6, (2′S,4′R,6′R)-4′-(benzylamino)-6-propyl-3′,4′,5′,6-tetrahydrospiro[indoline-3,2′-pyran]-2-one], for which the inhibition at 20 µM in data set [3] was 37.7%.

Turning to `CCC[C@@H]1CC(=O)C[C@@]2(O1)C(=O)Nc1cc(Cl)ccc12` [Compound 3af, (2′S,6′R)-6-chloro-6′-propyl-5′,6′-dihydrospiro[indoline-3,2′-pyran]-2,4′(3′H)-dione], the IC50 in data set [1] (sample with no ee given) came to 21 µM. The “activity selectively lethal” value in data set [2] was “selectively lethal”.

As for `CCC[C@@H]1C/C(=N/NS(=O)(=O)c2ccc(C)cc2)C[C@@]2(O1)C(=O)Nc1ccccc12` (stereo in doubt), the melting point is 197 to 199 °C.

A word on the IC50: it is the concentration that inhibits the measured activity by half. Lower therefore signals higher potency. By melting point is commonly meant the temperature, or range, at which the solid turns liquid. One may read the inhibition as the drop in the measured response relative to a control, in per cent.
